Measurements from patent publication US20080207614A1, “QUINAZOLINE DERIVATIVES FOR THE TREATMENT AND PREVENTION OF DIABETES AND OBESITY” (SK CHEMICALS CO., LTD., priority 2004, published 2008).

Tested on: C2C12 muscle cells
Assay: Analysis of glucose absorption (2-deoxyglucose) in differentiated C2C12 muscle cells
Format: cell-based
Details: test materials 10 μM, times relative to control group
Procedure: C2C12 muscle cells were cultured in DMEM (Dulbecco's modified Eagle's medium) containing 10% bovine calf serum. When the cell density increased to about 85 to 90%, the culture medium was replaced with 1% bovine calf serum and cell differentiation was induced for 6 days. Completely differentiated cells were cultured for 3 hours with Krebs-Ringer buffer (KRB) containing 5 mM glucose. The test materials were added at a concentration of 10 μM. 30 minutes later, 0.2 μCi 2-deoxyglucose was added. KRB was removed 20 minutes later and the cells were washed for 3 times with cold PBS. The cells were lysed with 0.5N NaOH and counted using a radioactive counter.

Compound | Glucose absorption
c1ccc(CCNc2nc(-c3ccncc3)nc3ccccc23)cc1 [Compound 251, Phenethyl-(2-pyridino-4-ylquinazolino-4-yl)-amine] | 0.6
c1ccc(Oc2cccc(Nc3nc(-c4ccccc4)nc4ccccc34)c2)cc1 [Compound 81, (3-Phenoxy-phenyl)-(2-phenylquinazolino-4-yl)-amine] | 0.9
c1ccc(CNc2nc(-c3ccccc3)nc3ccccc23)cc1 [Compound 86, Benzyl-(2-phenylquinazolino-4-yl)-amine] | 1.4
OCCNc1nc(C2CCCCC2)nc2ccccc12 [Compound 210, 2-(2-Cyclohexylquinazolino-4-ylamino)-ethanol] | 0.9
c1ccc2c(NCc3ccc4c(c3)OCO4)nc(-c3ccncc3)nc2c1 [Compound 254, Benzo[1,3]dioxol-5-ylmethyl-(2-pyridino-4-ylquinazolino-4-yl)-amine] | 1.4
c1ccc(CCNc2nc(-c3cccnc3)nc3ccccc23)cc1 [Compound 239, Phenethyl-(2-pyridino-3-ylquinazolino-4-yl)-amine] | 0.5
OCCCCCNc1nc(-c2ccccc2)nc2ccccc12 [Compound 85, 5-(2-Phenylquinazolino-4-ylamino)-pentane-1-ol] | 1.0
Fc1cccc(CCNc2nc(-c3cccnc3)nc3ccccc23)c1 [Compound 244, [2-(3-Fluorophenyl)-ethyl]-(2-pyridino-3-ylquinazolino-4-yl)-amine] | 0.4
c1ccc(Oc2ccccc2Nc2nc(-c3ccccc3)nc3ccccc23)cc1 [Compound 80, (2-Phenoxy-phenyl)-(2-phenylquinazolino-4-yl)-amine] | 1.0
c1ccc2c(NCc3ccc4c(c3)OCO4)nc(C3CCCCC3)nc2c1 [Compound 206, Benzo[1,3]dioxol-5-ylmethyl-(2-cyclohexylquinazolino-4-yl)-amine] | 1.4
Clc1ccc(CNc2nc(-c3ccccc3)nc3ccccc23)cc1Cl [Compound 89, (3,4-Dichlorobenzyl)-(2-phenylquinazolino-4-yl)-amine] | 1.4
c1ccc(CCCCCNc2nc(-c3ccccc3)nc3ccccc23)cc1 [Compound 53, (5-Phenyl-pentyl)-(2-phenylquinazolino-4-yl)-amine] | 1.2
Clc1ccc(CCNc2nc(-c3ccccc3)nc3ccccc23)c(Cl)c1 [Compound 127, [2-(2,4-Dichlorophenyl)-ethyl]-(2-phenylquinazolino-4-yl)-amine] | 1.4
COc1ccccc1CNc1nc(-c2ccccc2)nc2ccccc12 [Compound 91, (2-Methoxybenzyl)-(2-phenylquinazolino-4-yl)-amine] | 1.2
COc1cc(OC)c(CNc2nc(-c3ccccc3)nc3ccccc23)c(OC)c1 [Compound 337, (2-Phenylquinazolino-4-yl)-(2,4,6-trimethoxybenzyl)-amine] | 1.3
CC(C)(C)c1nc(NCc2cccc(F)c2)c2ccccc2n1 [Compound 195, (2-tert-Butylquinazolino-4-yl)-(3-fluorobenzyl)-amine] | 1.2
c1ccc(-c2nc(NC3CCCC3)c3ccccc3n2)cc1 [Compound 95, Cyclopentyl-(2-phenylquinazolino-4-yl)-amine] | 1.2
COc1ccc(Nc2nc(-c3ccccc3)nc3ccccc23)cc1O [Compound 84, 2-Methoxy-5-(2-phenylquinazolino-4-ylamino)phenol] | 1.0
CC(C)CNc1nc(-c2ccccc2)nc2ccccc12 [Compound 55, Isobutyl-(2-phenylquinazolino-4-yl)-amine] | 1.2

Compound | Glucose absorption
CC(C)(C)c1nc(NCCOCCO)c2ccccc2n1 [Compound 197, 2-[2-(2-tert-Butylquinazolino-4-ylamino)-ethoxy]-ethanol] | 1.3
CC(C)Nc1nc(-c2ccccc2)nc2ccccc12 [Compound 60, Isopropyl-(2-phenylquinazolino-4-yl)-amine] | 1.0
Oc1ccccc1CCNc1nc(-c2ccccc2)nc2ccccc12 [Compound 152, 2-[2-(2-Phenylquinazolino-4-ylamino)-ethyl]-phenol] | 2.4
CCSc1nc(NCCN2CCCCC2)c2ccccc2n1 [Compound 44, (2-Ethylsulfanylquinazolino-4-yl)-(2-piperidino-1-ylethyl)-amine] | 1.3
CC(C)c1ccc(Nc2nc(-c3ccccc3)nc3ccccc23)cc1 [Compound 72, (4-Isopropyl-phenyl)-(2-phenylquinazolino-4-yl)-amine] | 1.1
Cc1ccc(CNc2nc(-c3ccccc3)nc3ccccc23)cc1 [Compound 54, (4-Methylbenzyl)-(2-phenylquinazolino-4-yl)-amine] | 1.2
COc1ccc(Nc2nc(-c3ccccc3)nc3ccccc23)cc1 [Compound 70, (4-Methoxyphenyl)-(2-phenylquinazolino-4-yl)-amine] | 1.0
CCSc1nc(NCCc2ccccn2)c2ccccc2n1 [Compound 46, (2-Ethylsulfanylquinazolino-4-yl)-(2-pyridino-2-ylethyl)-amine] | 1.1
COc1ccc(CNc2nc(Cc3ccccc3)nc3ccccc23)c(OC)c1 [Compound 333, (2-Benzylquinazolino-4-yl)-(2,4-dimethoxybenzyl)-amine] | 1.2
COc1ccc(CNc2nc(Cc3ccccc3)nc3ccccc23)cc1OC [Compound 331, (2-Benzylquinazolino-4-yl)-(3,4-dimethoxybenzyl)-amine] | 1.2
c1ccc(CCCCNc2nc(-c3cccnc3)nc3ccccc23)cc1 [Compound 240, (4-Phenylbutyl)-(2-pyridino-3-ylquinazolino-4-yl)-amine] | 1.0
COc1ccc(CCNc2nc(-c3ccccc3)nc3ccccc23)cc1OC [Compound 107, [2-(3,4-Dimethoxyphenyl)-ethyl]-(2-phenylquinazolino-4-yl)-amine] | 0.4
Fc1cccc(CNc2nc(-c3cccnc3)nc3ccccc23)c1 [Compound 243, (3-Fluorobenzyl)-(2-pyridino-3-ylquinazolino-4-yl)-amine] | 1.4
OCCOCCNc1nc(-c2ccncc2)nc2ccccc12 [Compound 257, 2-[2-(2-Pyridino-4-ylquinazolino-4-ylamino)-ethoxy]-ethanol] | 1.4
c1ccc(Cc2nc(NCc3cccc4ccccc34)c3ccccc3n2)cc1 [Compound 217, (2-Benzylquinazolino-4-yl)-naphthaleno-1-ylmethylamine] | 1.2
OCCOCCNc1nc(-c2cccnc2)nc2ccccc12 [Compound 245, 2-[2-(2-Pyridino-3-ylquinazolino-4-ylamino)-ethoxy]-ethanol] | 1.2
CC(Nc1nc(-c2ccccc2)nc2ccccc12)c1ccccc1 (stereo not shown) [Compound 87, (1-Phenylethyl)-(2-phenylquinazolino-4-yl)-amine] | 1.0
COc1cccc(CNc2nc(-c3ccncc3)nc3ccccc23)c1 [Compound 248, (3-Methoxybenzyl)-(2-pyridino-4-ylquinazolino-4-yl)-amine] | 1.4
